In article PMC8844822, “SARM1 is a multi-functional NAD(P)ase with prominent base exchange activity, all regulated bymultiple physiologically relevant NAD metabolites” (iScience, 2022):

Key:
Experiment in all cases: Base exchange reactions at neutral pH (HPLC)
Assay type in all cases: biochemical
[1] = molecular target: T1, hSARM1 SAM-TIR (Homo sapiens, UniProt Q6SZW1)
T1 construct: made in house
T1 sequence (Q6SZW1 409-724): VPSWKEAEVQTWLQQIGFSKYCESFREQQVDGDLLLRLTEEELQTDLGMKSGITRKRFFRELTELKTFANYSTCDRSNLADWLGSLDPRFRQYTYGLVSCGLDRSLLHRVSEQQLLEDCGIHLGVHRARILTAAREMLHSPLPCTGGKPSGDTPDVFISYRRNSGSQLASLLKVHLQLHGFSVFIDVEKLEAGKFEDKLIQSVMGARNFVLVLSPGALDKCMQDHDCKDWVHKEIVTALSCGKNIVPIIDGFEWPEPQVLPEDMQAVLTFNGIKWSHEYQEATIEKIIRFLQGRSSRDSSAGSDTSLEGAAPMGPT
Protocol: Multiple time stops from individual assays as above were analyzed for linearity, then extents of hydrolysis (white bars), cyclization (red bars), or base exchange (black bars) were calculated from each corresponding product as shown in Figure 1B and STAR methods. […] See also Figures S3–S5, and Table S1
Rates were calculated as follows.

[2] = molecular target: T2, hSARM1 full length (Homo sapiens, UniProt Q6SZW1)
T2 construct: Human recombinant SARM1 full length proteins (wild-type and E642A mutant); made in house
T2 sequence (Q6SZW1 28-724): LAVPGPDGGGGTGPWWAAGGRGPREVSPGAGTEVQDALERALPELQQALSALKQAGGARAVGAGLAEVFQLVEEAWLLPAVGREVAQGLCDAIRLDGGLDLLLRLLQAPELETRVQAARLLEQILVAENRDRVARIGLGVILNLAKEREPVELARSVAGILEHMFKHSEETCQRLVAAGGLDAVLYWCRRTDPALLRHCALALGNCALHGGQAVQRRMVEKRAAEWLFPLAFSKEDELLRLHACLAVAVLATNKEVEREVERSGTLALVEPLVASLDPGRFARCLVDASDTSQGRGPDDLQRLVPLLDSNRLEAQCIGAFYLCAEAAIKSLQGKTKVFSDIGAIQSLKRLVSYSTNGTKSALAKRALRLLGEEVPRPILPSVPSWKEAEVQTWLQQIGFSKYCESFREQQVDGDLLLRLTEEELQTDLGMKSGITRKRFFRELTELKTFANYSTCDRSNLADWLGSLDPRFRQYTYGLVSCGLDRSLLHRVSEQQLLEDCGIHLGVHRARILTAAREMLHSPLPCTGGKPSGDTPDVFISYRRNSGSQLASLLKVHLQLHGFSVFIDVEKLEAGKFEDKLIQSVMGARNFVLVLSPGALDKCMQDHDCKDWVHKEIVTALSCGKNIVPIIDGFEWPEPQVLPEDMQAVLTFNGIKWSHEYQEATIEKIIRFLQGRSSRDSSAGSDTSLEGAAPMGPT

[3] = molecular target: T3, hCD38 (Homo sapiens, UniProt P28907)
T3 construct: a soluble fragment Val43-Ile300 with 6x-His tag at C terminus; 6xHis (C); purchased R&D Systems
T3 sequence (P28907 43-300): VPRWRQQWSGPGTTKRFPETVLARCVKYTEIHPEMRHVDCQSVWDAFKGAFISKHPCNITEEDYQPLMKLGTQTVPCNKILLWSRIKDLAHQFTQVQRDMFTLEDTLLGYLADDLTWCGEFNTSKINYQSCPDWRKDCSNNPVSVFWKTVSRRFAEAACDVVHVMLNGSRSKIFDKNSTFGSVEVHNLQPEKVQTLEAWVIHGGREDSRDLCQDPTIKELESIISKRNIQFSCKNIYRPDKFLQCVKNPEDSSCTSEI

[4] = NAD […] alone or + AcPyr 2 mM / Vacor 0.5 mM / Na 2 mM
[5] = NADP […] alone or + AcPyr 2 mM / Vacor 0.5 mM / Na 2 mM
[6] = hSARM1 full length +NMN 0.2 mM, NAD […]
[7] = hSARM1 full length +NMN 0.2 mM, NAD […] alone or + free base
[8] = hSARM1 full length +NMN 0.2 mM, NAD […], relative to NAD alone without trigger
[9] = hSARM1 full length +NMN 0.2 mM, NADP […]
[10] = hSARM1 full length +NMN 0.2 mM, NADP […] alone or + free base
[11] = hSARM1 full length +NMN 0.2 mM, NADP […], relative to NADP alone without trigger
[12] = hSARM1 full length +VMN 0.05 mM, NAD […]
[13] = hSARM1 full length +VMN 0.05 mM, NAD […] alone or + free base
[14] = hSARM1 full length +VMN 0.05 mM, NAD […], relative to NAD alone without trigger
[15] = hSARM1 full length +VMN 0.05 mM, NADP […]
[16] = hSARM1 full length +VMN 0.05 mM, NADP […] alone or + free base
[17] = hSARM1 full length +VMN 0.05 mM, NADP […], relative to NADP alone without trigger
[18] = hSARM1 full length, no trigger, NAD […] alone or + AcPyr 2 mM / Vacor 0.5 mM / Na 2 mM, pH 7.5
[19] = hSARM1 full length, no trigger, NADP […] alone or + AcPyr 2 mM / Vacor 0.5 mM / Na 2 mM, pH 7.5

Row | Compound | rate [1, 4] [mU/mg] | rate [1, 5] [mU/mg] | base exchange, share of products [2, 6] [%] | cyclization, share of products [2, 6] [%] | hydrolysis, share of products [2, 6] [%] | rate [2, 7] [mU/mg] | rate (relative fold) [2, 8] [fold] | base exchange, share of products [2, 9] [%] | hydrolysis, share of products [2, 9] [%] | rate [2, 10] [mU/mg] | rate (relative fold) [2, 11] [fold] | base exchange, share of products [2, 12] [%] | cyclization, share of products [2, 12] [%] | hydrolysis, share of products [2, 12] [%] | rate [2, 13] [mU/mg] | rate (relative fold) [2, 14] [fold] | base exchange, share of products [2, 15] [%] | hydrolysis, share of products [2, 15] [%] | rate [2, 16] [mU/mg] | rate (relative fold) [2, 17] [fold] | other results
1 | CC(=O)c1cccnc1 [AcPyr, 3-acetylpyridine] | 427.3 ±76.5 | 261.7 ±60.9 | 92.73 | 0.80 | 6.47 | 218.5 ±37.4 | 10.02 ±1.71 | 93.20 | 6.80 | 131.1 ±17.0 | 8.92 ±1.16 | 93.61 | 0.68 | 5.72 | 228.9 ±18.9 | 10.49 ±0.867 | 94.18 | 5.82 | 140.7 ±13.3 | 9.57 ±0.907 | rate [2, 18]: 42.6 ±3.34 mU/mg; rate [2, 19]: 26.6 ±1.71 mU/mg; rate [3, 4]: 8284 ±992 mU/mg; rate [3, 5]: 3255 ±787 mU/mg
2 | O=C(NCc1cccnc1)Nc1ccc([N+](=O)[O-])cc1 [Vacor, 1-(4-nitrophenyl)-3-(pyridin-3-ylmethyl)urea] | 284.8 ±51.1 | 266.0 ±54.1 | 20.86 | 7.06 | 72.08 | 180.1 ±8.72 | 8.26 ±0.400 | 23.61 | 76.34 | 134.7 ±5.67 | 9.16 ±0.386 | 44.98 | 4.75 | 50.27 | 206.2 ±1.12 | 9.45 ±0.051 | 35.56 | 63.94 | 148.5 ±4.61 | 10.11 ±0.314 | cyclization, share of products [2, 9]: ~ 0.05%; cyclization, share of products [2, 15]: 0.50%; rate [2, 18]: 29.5 ±2.55 mU/mg; rate [2, 19]: 22.9 ±1.68 mU/mg; base exchange products VAD(P) or NaAD(P), share of total products ([2]; hSARM1 full length, NAD or NADP 250 μM, vacor 0.5 mM, Na 2 mM): 20%–30%; rate [3, 4]: 6818 ±1376 mU/mg; rate [3, 5]: 3496 ±593 mU/mg
